# Reference: patent US9469854B2, “Pharmaceutical composition for treating liver diseases” (Academia Sinica, priority 2014, dated 2016)
# How the values were obtained:
# NAMPT = experiment: qRT-PCR mRNA expression in primary human hepatocytes; format: cell-based; conditions: PHH, 40 μM berberine, 4-8 h
# Description: (§1) The primary human hepatocytes from Caucasian donors were purchased from Invitrogen and cultured following the manufacturer's instructions. The hepatocytes were thawed and transferred into cryopreserved hepatocytes recovery medium (CM7000, Invitrogen), centrifuging at room temperature, 100×g for 10 min. Then, the hepatocytes were diluted to seeding density with plating medium (CM3000, Invitrogen) and added into collagen I-coated plates (Invitrogen). These plates were incubated at 37° C. for 4-6 hours under 5% CO2 for forming a monolayer. Then, plating medium was replaced by overlay incubation medium (CM4000 and 0.35 mg/mL Geltrex™ Matrix, Invitrogen), and the incubation medium was replaced daily. In the following examples, hepatocytes form 3 to 4 donors were used for experiments. A 50 mM stock solution of berberine chloride (Sigma-Aldrich) was prepared in dimethyl sulfoxide (DMSO). Cells were treated with 40 μM of berberine chloride or 0.08% DMSO as the control. For induction of lipid droplets formation in cultured cells, 200 μM of oleic acid (Sigma-Aldrich) was added into the culture medium for 24 h. Total RNA was extracted using a TRIZOL reagent (Invitrogen) according to the manufacturer's protocol. The total RNA quantity was measured using a NanoDrop ND-1000 spectrophotometer (Nanodrop Technologies). The total RNA quality and integrity were assayed using an Agilent 2100 bioanalyzer with an RNA 6000 nano kit (Agilent Technologies). Total RNAs (1 μg) were reverse-transcribed into cDNA by using M-MuLV Reverse Transcriptase (Thermo) and Oligo(dT)12-18 primers (Invitrogen) according to the manufacturer's protocol. The cDNA were then used for a real-time PCR with a LightCycler 480 SYBR Green I Master (Roche) by using primers shown in the following Table 1. The gene expression levels were normalized to GAPDH levels.
# IL6R = experiment: as above; format: cell-based; conditions: PHH, 40 μM berberine, 4-8 h
# Description: as §1
# ACSM2A = experiment: as above; format: cell-based; conditions: PHH, 40 μM berberine, 2-4 h
# Description: as §1
# hsa-miR-21-3p = experiment: miRNA microarray profiling of berberine-treated primary human hepatocytes; format: cell-based; conditions: PHHs from 3 donors, 40 μM berberine, 2 h
# Description: A 50 mM stock solution of berberine chloride (Sigma-Aldrich) was prepared in dimethyl sulfoxide (DMSO). […]
# Total RNA was extracted using a TRIZOL reagent (Invitrogen) according to the manufacturer's protocol. The total RNA quantity was measured using a NanoDrop ND-1000 spectrophotometer (Nanodrop Technologies). […]
# The miRNA profiling was performed using an Agilent human miRNA Microarray R14 V2 containing 866 human miRNAs. […] Microarrays were scanned following the Agilent microarray scanner protocol, and image analysis and quantification were performed using the Agilent Feature Extraction software (Agilent Technologies). […]
# ACACA = experiment: qRT-PCR mRNA expression in HepG2 cells; format: cell-based, human; conditions: HepG2, mimic transfection, 24 h
# Description: The human HepG2 cells and HEK 293T cells used in the following examples were originally obtained from the American Tissue Culture Collection (ATCC, USA). The human HCC HepG2 cell line was cultured in Minimum Essential Medium Eagle (Sigma) supplemented with 10% fetal bovine serum (FBS) (Invitrogen), 2.2 g/L of sodium bicarbonate (Sigma), 0.1 mM of non-essential amino acids (Caisson), 1 mM of sodium pyruvate (Invitrogen), and 10 of ml/L penicillin-streptomycin-amphotericin solution (Biological Industries). Human HEK-293T cells were maintained in high-glucose Dulbecco's modified eagle medium (Invitrogen) supplemented with 10% FBS and 3.7 g/L of sodium bicarbonate (Sigma). Both cell lines were cultured at 37° C. and 5% CO2. A 50 mM stock solution of berberine chloride (Sigma-Aldrich) was prepared in dimethyl sulfoxide (DMSO). Cells were treated with 40 μM of berberine chloride or 0.08% DMSO as the control. For induction of lipid droplets formation in cultured cells, 200 μM of oleic acid (Sigma-Aldrich) was added into the culture medium for 24 h. Total RNA was extracted using a TRIZOL reagent (Invitrogen) according to the manufacturer's protocol. The total RNA quantity was measured using a NanoDrop ND-1000 spectrophotometer (Nanodrop Technologies). The total RNA quality and integrity were assayed using an Agilent 2100 bioanalyzer with an RNA 6000 nano kit (Agilent Technologies). Total RNAs (1 μg) were reverse-transcribed into cDNA by using M-MuLV Reverse Transcriptase (Thermo) and Oligo(dT)12-18 primers (Invitrogen) according to the manufacturer's protocol. The cDNA were then used for a real-time PCR with a LightCycler 480 SYBR Green I Master (Roche) by using primers shown in the following Table 1. The gene expression levels were normalized to GAPDH levels. […] Cells were incubated for 24 h or 48 h with a microRNA mimic or inhibitor prior to RNA purification for gene expression analysis, and were incubated for 72 h for protein expression analysis.
# [1] = system: intracellular malonyl-CoA; experiment: Measurement of intracellular malonyl-CoA concentration in PHH cells; format: cell-based, human; conditions: 72-h mimic transfection
# Description: After transfection with 50 nM of miR-21-3p mimic or the negative-control mimic for 72 h, the PHH cells and HepG2 cells were trypsinized. The intracellular malonyl-CoA concentration was measured using the malonyl-CoA ELISA Kit (MyBioSource) according to the manufacturer's instructions.
# MAT2A 3′ UTR = experiment: Dual luciferase reporter assay in HepG2 cells; format: cell-based, human
# Description: Full-length 3′ UTRs of MAT2A and MAT2B were amplified from the genomic DNA of HepG2 cells through PCR.
# The PCR products were then cloned into the pMIR-REPORT Luciferase miRNA Expression Reporter Vector (Invitrogen), and all inserted sequences in the 3′ UTR constructs were checked using the ABI PRISM DNA sequencer.
# The mutagenesis of the target sequences of hsa-miR-21-3p in MAT2A and MAT2B 3′ UTRs was performed using the QuikChange site-directed mutagenesis kit (Agilent) according to the manufacturer's standard protocol.
# All mutated sequences, including Site 1, Site 2 and the double mutation of the MAT2A and the 3′ UTR mutant construct of MAT2B, were checked through DNA sequencing.
# The HEK-293T and HepG2 cells were seeded at a density of 5×10^4 cells per well in a 24-well culture plate the day before transfection. The HEK-293T and HepG2 cells were tri-transfected with (1) any one of the above-mentioned pMIR-REPORT-3′ UTR construction (300 ng), (2) the control Renilla luciferase reporter plasmid pRL-TK from Promega (10 ng), and (3) 50 nM of hsa-miR-21-3p mimic or negative-control mimic by using the Lipofectamine 2000 transfection reagent (Invitrogen) according to the manufacturer's instructions. Luciferase assays were performed after transfection for 48 h by using the Dual Luciferase reporter assay kit (Promega) and the Paradigm detection platform (Beckman) according to the manufacturer's protocol. The firefly luciferase activity was normalized relative to the Renilla luciferase activity.
compound,measurement,setting,value
COc1ccc2cc3[n+](cc2c1OC)CCc1cc2c(cc1-3)OCO2 [berberine],mRNA expression of NAMPT,NAMPT,increase
same,mRNA expression of IL6R,IL6R,decreases
same,mRNA expression of ACSM2A,ACSM2A,considerably decreases
same,"hsa-miR-21-3p expression increase (miRNA microarray), mean",hsa-miR-21-3p,3.36 fold
"hsa-miR-21-3p (CAACACCAGUCGAUGGGCUGU; listed as RNA, chemistry not given here) [miR-21-3p mimic]",decrease in mRNA expression of ACACA,ACACA,44%
same,intracellular malonyl-CoA concentration decrease,[1],2.2 fold
same,"luciferase reporter expression decrease, Site 1 mutated MAT2A 3′ UTR","MAT2A 3′ UTR; HepG2, Site 1 (+180-200) mutated",1.5 fold
same,"luciferase reporter expression decrease, MAT2A 3′ UTR","MAT2A 3′ UTR; HepG2, wild-type 3′ UTR, 50 nM mimic, 48 h",1.5 fold
same,"luciferase reporter expression change, Site 2 mutated MAT2A 3′ UTR","MAT2A 3′ UTR; Site 2 (+1267-1288) mutated, cells not named in sentence (FIG. 5C: HEK293T and HepG2)",did not notably change
same,"luciferase reporter expression change, double-mutated MAT2A 3′ UTR","MAT2A 3′ UTR; both Site 1 and Site 2 mutated, cells not named in sentence (FIG. 5C: HEK293T and HepG2)",did not notably change
